Data reported in patent US20170114025A1, “METHODS FOR INHIBITING NECROPTOSIS” (Catalyst Therapeutics Pty Ltd, priority 2014, published 2017).
Like-named read-outs stand apart in the source and are kept apart here.

Experiments:
wild type U937 cells = experiment: Cell death assay, TSQ-induced necroptosis in U937 cells (PI, flow cytometry); format: cell-based, human; conditions: for IC50: Homo sapiens
Text: (§1) Mouse dermal fibroblasts (MDFs) were isolated from three MlkI^−/− mice and three congenic wild type mice and then immortalized by SV40 large T antigen to generate three biologically independent cell lines, as described in Murphy J M, et al. (2013), Immunity 39(3):443-453. Immortalized MDFs were similarly prepared from three Ripk3^−/− mice and congenic wild type mice. MDFs and HEK293T were maintained in Dulbecco's modified Eagle's medium (DMEM) supplemented with 8-10% v/v fetal calf serum (FCS), and 5 μg/mL puromycin for lines stably transduced with inducible expression constructs for MLKL. U937 cells were cultured in RPMI1640 supplemented with 8% v/v FCS. Cell death assays were carried out in 24 well plates, seeding 1×10^5 cells per well. Cells attached over 4 h in the presence of 10 ng/mL doxycycline or 20 ng/mL were then treated with assorted combinations of Necrostatin (50 μM) and Q-VD-OPh (5 μM) 30 min prior to addition of TNF (100 ng/mL) and Smac mimetic (500 nM). After 24 h for MDF cells or 48 h for U937 cells, cells were harvested and PI positive cells (1 μg/mL) quantified using a BD FACSCalibur flow cytometer.

[1] = tested on: U937 human histiocytic leukemia cell line; experiment: Screening for inhibition of TSQ induced necroptosis, 96 well plate format; format: cell-based
Method: Screening Compounds for Inhibition of TSQ Induced Necroptosis, 96 Well Plate Format.
U937 human histiocytic leukemia cell line.
35,000 per well in 120 μL of media, counted and plated immediately prior to addition of inhibitor and death stimuli. Final well volume of 150 μL after addition of compounds and death stimuli
HTRPMI (WEHI Media kitchen, contains L-Glutamine and penicillin, streptomycin)—supplemented with 7.4% v/v FCS (Gibco, Precision Plus. Lot #1221437)
48 hours following addition of compounds and death stimuli
DMSO Final Concentration (% v/v): 0.2%
Compounds that are in the Death Stimulation Cocktail and their Final Concentrations: • hTNF-Fc (100 ng/ml)—produced by Silke lab, WEHI • Compound A (500 nM)—Smac mimetic, Tetralogic • Q-VD-OPh (10 μM)—MP Biomedicals
Analysis: • Cells treated with PI staining (1 μg/ml) and analysed by flow cytometry
TNF; S: Smac mimetic; Q: Q-VD-OPh): TSQ treatment ensures that cells specifically undergo necroptotic cell death. TNF activates the TNF receptor, Smac mimetic direct the signal away from proinflammatory signaling and toward the RIP1/RIP3-mediated cell death pathways, and Q-VD-OPh ensures that the apoptotic response is blocked leaving only the programmed necrosis response. The compounds' activity (solution in DMSO) tested in this TSQ-induced assay is evaluated by measuring their ability to block cell death as measured by flow cytometry after PI staining.

U937 cells = experiment: Counter screen: cell viability without TSQ cocktail (off target effect); format: cell-based; conditions: U937 without TSQ cocktail; for Off target effect (% cell death) at 500 nM: compound at 500 nM; for Off target effect (% cell death) at 1 uM: compound at 1 uM; for Off target effect (% cell death) at 5 uM: compound at 5 uM; for Off target effect (% cell death) at 10 uM: compound at 10 uM
Method: In parallel, all compounds are tested for their ability to affect cell viability. The same U937 cells are treated with compound in DMSO without the TSQ cocktail. This counter screen enables evaluation of off-target effects. In this case gain, cell viability is measured by flow cytometry after PI staining.

[2] = target: T1, human MLKL(190-471) pseudokinase domain (Homo sapiens, UniProt Q8NB16); experiment: Surface Plasmon Resonance (SPR) binding, human MLKL; design: made in house; host or cells: Sf21 insect cells; conditions: read-out: Affinity (Kd) as determined by SPR
T1 sequence (Q8NB16 190-471): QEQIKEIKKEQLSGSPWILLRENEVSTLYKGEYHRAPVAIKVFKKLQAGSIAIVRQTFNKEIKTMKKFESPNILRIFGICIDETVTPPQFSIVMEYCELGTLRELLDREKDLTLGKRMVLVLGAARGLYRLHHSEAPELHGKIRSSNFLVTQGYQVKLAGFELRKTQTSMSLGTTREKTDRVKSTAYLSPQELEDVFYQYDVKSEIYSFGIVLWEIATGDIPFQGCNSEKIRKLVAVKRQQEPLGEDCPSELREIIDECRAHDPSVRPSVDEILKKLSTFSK
Text: Double His-tagged MLKL and an unrelated negative control reference protein were immobilized on an NTA Capture chip charged with Ni^2+ according to manufacturer's instructions. In some instances, double His-tagged proteins were captured via Ni^2+/NTA chelation on a series S sensor chip containing carboxymethylated dextran surface pre-immobilized with nitrilotriacetic acid (NTA). The surface was then activated and enhanced with NHS/EDC mixture and His captured proteins covalently coupled to the surface as succinamide esters. Ethanolamine was injected later to block any unreacted esters. Unbound Ni^2+ and non-covalently bound proteins were eluted by EDTA injections.
Typical immobilization levels were 2000-3000 Response Units (RU). Flow cell 1 was left blank as a reference surface. Immobilization experiments were carried out at 25° C. in a running buffer containing 20 mM HEPES (pH 8.0), 200 mM NaCl and 0.005% (v/v) surfactant P20.
Binding experiments were carried out in Running Buffer+2% v/v DMSO. […] Data were reduced, solvent corrected, and double referenced by Biacore T200 Evaluation Software. Data were fit globally to a two state kinetic interaction model and the Kd determined from the (kd/ka) ratio. A 1:1 binding stoichiometry was inferred from the steady state binding curves and the maximum observed Response Unit (RU) levels.

[3] = target: T2, human MLKL ATP-binding site (Homo sapiens, UniProt Q8NB16); experiment: Complex between compound and human MLKL (FIG. 5); conditions: FIG. 5 (A) and (B)
T2 sequence (Q8NB16 1-471): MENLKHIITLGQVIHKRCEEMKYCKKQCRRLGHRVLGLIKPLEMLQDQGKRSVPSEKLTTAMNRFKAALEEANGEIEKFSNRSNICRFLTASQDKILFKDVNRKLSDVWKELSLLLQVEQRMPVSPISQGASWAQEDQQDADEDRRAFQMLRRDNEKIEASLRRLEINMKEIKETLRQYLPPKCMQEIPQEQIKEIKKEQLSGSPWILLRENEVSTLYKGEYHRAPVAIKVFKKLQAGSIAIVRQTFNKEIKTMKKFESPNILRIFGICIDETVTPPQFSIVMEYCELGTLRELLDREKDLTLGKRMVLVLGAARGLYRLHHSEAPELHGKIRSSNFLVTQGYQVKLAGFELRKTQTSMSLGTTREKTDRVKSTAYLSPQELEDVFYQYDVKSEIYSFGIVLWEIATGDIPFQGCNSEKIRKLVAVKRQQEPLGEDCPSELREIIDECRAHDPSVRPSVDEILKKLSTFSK

[4] = tested on: wild type MDFs (mouse dermal fibroblasts); experiment: Cell death assay, TSQ-induced necroptosis in MDFs (PI, flow cytometry); format: cell-based; conditions: wild type MDFs; at same or less than 1 μM
Text: as §1

[5] = U-937, Table 1, U937 cells, TSQ-induced necroptosis, read-out: Inhibition of necroptosis (IC50)
[6] = U-937, U937, TSQ, 48 hours, unit not given in Table 2 (titrations given in nM), read-out: Cell based assay IC50
[7] = U-937, U937, TSQ, 48 hours, average IC50, unit not given in Table 2 (titrations in nM), read-out: Cell based assay Average
[8] = U-937, 48 h, read-out: Cell based assay Average
[9] = U-937, 48 h, read-out: Cell based assay IC50

Row | SMILES | IC50 (wild type U937 cells; [5]) | IC50 [1, 6] | Off target effect (% cell death) at 500 nM (U937 cells) | Off target effect (% cell death) at 1 uM (U937 cells) | Off target effect (% cell death) at 5 uM (U937 cells) | Off target effect (% cell death) at 10 uM (U937 cells) | Kd [2] | IC50 [1, 7] | binding site in complex with human MLKL [3] | IC50 (wild type U937 cells; U-937, read-out: Inhibition of necroptosis (IC50)) | IC50 [1, 8] | IC50 [1, 9] | inhibition of TSQ-induced necroptosis [4] | inhibition of TSQ-induced necroptosis (wild type U937 cells; wild type U937 cells)
1 | CN(c1ccc(NC(=O)Nc2ccccc2)cc1)c1ccnc(Nc2cccc(S(N)(=O)=O)c2)n1 [Compound 2] | 400 to 800 nM | 123 nM | 24% | 23% | 32% | 87% | 1300 nM |  |  |  |  |  |  | 
2 | CN(c1ccc(NC(=O)Nc2cc(C(F)(F)F)ccc2F)cc1)c1ccnc(Nc2cccc(S(N)(=O)=O)c2)n1 [Compound 3] | 1 to 5 nM | 3.31 nM | 40% | 72% | 86% | 84% |  | 15.3 nM | binds within the ATP-binding site of human MLKL |  |  |  |  | 
3 | CN(c1ccc(NC(=O)Nc2ccc(OC(F)(F)F)cc2)cc1)c1ccnc(Nc2ccc(S(N)(=O)=O)cc2)n1 [Compound 4, 4-(4-(Methyl(4-(3-(4-(trifluoromethoxy)phenyl)ureido)phenyl)amino)pyrimidin-2-ylamino)benzenesulfonamide] |  |  |  |  |  |  | 4700 nM |  |  | > 1000 nM | > 5000 nM | 1460 nM |  | 
4 | COCCNS(=O)(=O)c1cccc(Nc2nccc(N(C)c3ccc(NC(=O)Nc4ccc(OC(F)(F)F)cc4)cc3)n2)c1 [Compound 23, N-(2-Methoxyethyl)-3-(4-(methyl(4-(3-(4-(trifluoromethoxy)phenyl)-ureido)phenyl)amino)pyrimidin-2-ylamino)benzenesulfonamide] |  | 39 nM | 21% | 21% | 22% | 64% |  | 43.9 nM |  |  |  |  |  | 
5 | NS(=O)(=O)c1cccc(Nc2nccc(N(c3ccc(NC(=O)Nc4ccc(OC(F)(F)F)cc4)cc3)C3CC3)n2)c1 [Compound 24, 3-((4-(Cyclopropyl(4-(3-(4-(trifluoromethoxy)phenyl)ureido)-phenyl)amino)-pyrimidin-2-yl)amino)benzenesulfonamide] |  |  | 20% | 21% | 66% | 80% |  |  |  |  | 176 nM | 144 nM |  | 
6 | CN(c1ccc(NC(=O)Nc2ccc(OC(F)(F)F)cc2)cc1)c1ccnc(Nc2cccc(S(C)(=O)=O)c2)n1 [Compound 25, 1-(4-(Methyl(2-((3-(methylsulfonyl)phenyl)amino)pyrimidin-4-yl)amino)phenyl)-3-(4-(trifluoromethoxy)phenyl)urea] |  | 21.7 nM | <20% | <20% | 43% | 86% |  | 32.9 nM |  |  |  |  |  | 
7 | CCN(c1ccc(NC(=O)Nc2ccc(OC(F)(F)F)cc2)cc1)c1ccnc(Nc2cccc(S(N)(=O)=O)c2)n1 [Compound 26, 3-((4-(ethyl(4-(3-(4-(trifluoromethoxy)phenyl)ureido)phenyl)-amino)pyrimidin-2-yl)amino)benzenesulfonamide] |  |  | <20% | <20% | 43% | 69% |  |  |  |  | 93.6 nM | 126 nM |  | 
8 | CN(c1ccc(NC(=O)Nc2ccc(OC(F)(F)F)cc2)cc1)c1ccnc(Nc2cccc(CS(C)(=O)=O)c2)n1 [Compound 27, 1-(4-(Methyl(2-((3-((methylsulfonyl)methyl)phenyl)amino)pyrimidin-4-yl)amino)phenyl)-3-(4-(trifluoromethoxy)phenyl)urea] |  | 191 nM | 24% | 20% | 33% | 84% |  | 114 nM |  |  |  |  |  | 
9 | CNC(=O)c1cc(Oc2ccc(NC(=O)Nc3ccc(Cl)c(C(F)(F)F)c3)cc2)ccn1 [Sorafenib, reference compound] |  |  |  |  |  |  |  |  |  |  |  |  | did not inhibit | did not inhibit
